How the values were obtained:
Assay type in all cases: cell-based, Beta vulgaris
[1] = test system: embryogenic tissue masses of sugar beet; test: Repetitive embryogenic culture: optimization of proliferation medium; conditions: for Effect of media on repetitive embryogenic culture (description) / white embryos, share of tissues / white embryos or white clumps, share of tissues: pH 5.7
Description: These embedded tissues were manually isolated, separated and transferred into liquid medium (MS medium+BAP 0.2 mg/L). The cultures were maintained at constant agitation (100 rpm) in the dark with biweekly changes of the medium. […] Clumps of white embryogenic tissue masses were divided and transferred to fresh medium for further proliferation. […] Part of these tissues was used for the optimization of culture medium.
The optimization of proliferation medium was conducted through several stages. Each stage lasted for two weeks.

[2] = test system: friable callus of sugar beet; test: Somatic embryogenesis from friable callus; conditions: callus of ACH199 on MS+BAP at 1 mg/L
Description: (§1) For regeneration of embryos, friable callus was transferred to callus regeneration medium (MS medium supplemented with either 1 mg/L of BAP or 1 mg/L of TDZ). The cultures were incubated at 25° C. under a photoperiod of 16 hours of light of cool, white light at an intensity of 30 μmol m^−2s^−1 followed by a 8 hours of darkness. Callus began to grow vigorously, and by the end of the second week, it was possible to distinguish several callus types as well as small embryos (FIG. 1C). Since every seedling was treated as a separate line, quantitative analysis can be applied to the results of the experiments.
After having subcultured callus tissues on regeneration medium, friable callus grew quite fast, expanded vigorously and was almost totally necrotic after a month. At this moment a few white embryogenic structures at different stages of development became visible (FIG. 1D); however, only callus of ACH199 growing on MS+BAP at 1 mg/L produced such structures. The frequency of embryogenesis was very low. Seven separate embryos were found in two out of 40 independent callus lines.

[3] = test system: friable callus of sugar beet; test: Shoot/plant regeneration from friable callus
Description: as §1
All explants of one type from the same line (i.e. only hypocotyls) were able to produce callus, if any did. At the same time, there were only a few cases where callus formed from both cotyledons and hypocotyls of the same seedling (twice in ACH31 and four times in ACH203).

[4] = test system: sugar beet somatic embryos; test: Germination of primary somatic embryos on MS medium containing cytokinin
Description: The embryos germinated quickly when transferred to fresh medium either supplemented with phytohormones or not. […] These embedded tissues were manually isolated, separated and transferred into liquid medium (MS medium+BAP 0.2 mg/L). The cultures were maintained at constant agitation (100 rpm) in the dark with biweekly changes of the medium. The white embryogenic tissue masses expanded in two weeks and snow-white fresh outgrowths formed on the surface of older tissues (FIG. 2B). Clumps of white embryogenic tissue masses were divided and transferred to fresh medium for further proliferation. A couple of such passages was enough to generate a large number of white clumps. Part of these tissues was used for the optimization of culture medium.

[5] = test system: sugar beet seedling tissues (hypocotyls, cotyledons); test: Callus induction from sugar beet seedling explants on MS medium with cytokinin
Description: Seeds from three sugar beet lines ACH199 (triploid), ACH31 (triploid) and ACH203 (diploid) were obtained from Crystal and Maribo Beet Seed, Moorehead, Minn. USA. To remove seed covers, Beta vulgaris seeds were soaked in the tap water overnight and then washed under water flow. Seeds were sterilized by sequential treatment with 70% (v/v) ethanol (1 min.), 0.1% (w/v) mercuric chloride (10 min.) and 10% (v/v) household laundry bleach (20 min.) followed by four washes with sterile distilled water. Seeds were then dried on sterile filter paper. All steps were performed in a laminar flow hood.
A series of media which included additional supplements were used for callus induction, embryo proliferation and shoot formation. Phytohormones (BAP, TDZ, NAA, IAA, 2,4-D) were added to the media before autoclaving (120° C. for 20 min.). The basal medium for callus induction and embryogenesis is MS medium comprising MS basal salts, 3% sucrose, 100 mg/L myo-inositol, 0.5 mg/L nicotinic acid, 0.5 mg/L pyridoxine-HCl, 1 mg/L thiamine-HCl and 0.8% (w/v) Difco agar. The basal medium for proliferation of repetitive embryos is MSE (MS basal salts, 100 mg/L myo-inositol, 0.5 mg/L nicotinic acid, 0.5 mg/L pyridoxine-HCl, 1 mg/L thiamine-HCl).
Petri dishes (100 mm×25 mm) containing 25 mL of medium were used for all experiments. Seeds were placed on MS medium, containing either BAP 2 mg/L or TDZ 1 mg/L; plates were sealed and placed in the dark place at 21° C. Cotyledons and hypocotyls (FIG. 1A) were excised from two-week-old seedlings, cut into several pieces, incised and placed on callus induction medium (MS medium supplemented with either 2 mg/L of BAP or 1 mg/l of TDZ). Plates were incubated in the dark at 21° C. Four weeks later, when explants were necrotic and dark brown, colonies of white friable callus appeared on the explant surface (FIG. 1B). Most of the callus formed on hypocotyls. Only a few colonies were found on cotyledons.

[6] = IV. MSE, sucrose 6%, glycine 2 mg/L, phytohormone 0.1 mg/L
[7] = II. MSE, sucrose 6%, glutamine 2 mg/L, phytohormone 0.1 mg/L
[8] = IV. MSE, sucrose 6%, glycine 2 mg/L, phytohormone 0.05 mg/L
[9] = IV. MSE, sucrose 6%, glycine 2 mg/L, phytohormone 1 mg/L
[10] = III. MSE, sucrose 6%, BAP 0.1 mg/l, amino acid 2 mg/L
[11] = III. MSE, sucrose 6%, BAP 0.1 mg/l, amino acid 200 mg/L
[12] = I. MSE, BAP 0.2 mg/L, glutamine 2 mg/L, carbon source 6%

`O=C(O)COc1ccc(Cl)cc1Cl` [2,4D, 2,4-dichlorophenoxyacetic acid] was tested, and the “colour of vitrified tissues” value [1] was “caused bleaching of vitrified tissues”, the “Effect of media on repetitive embryogenic culture (description)” value (“Effect of media” for short) [1, 6] was “Pale yellow tissues with white embryos; red pigmentation is repressed” and the “effect on embryo proliferation” value ([1]; presence in the medium) was “negative effect”.

For `c1ccc(CNc2ncnc3nc[nH]c23)cc1` [BAP, 6-benzylaminopurine], the frequency of embryogenesis [2] was “very low”, the “independent callus lines in which embryos were found” value [2] was “two out of 40” and the separate embryos found ([2]; after a month) was “Seven”. The “# of lines produced shoots” value ([3]; Cultivar ACH31, Cotyledons) was 0, the “%B: number of lines producing callus and regenerating/total number of lines × 100” value ([3]; Cultivar ACH31, Cotyledons) was 0% and the “%B: number of lines producing callus and regenerating/total number of lines × 100” value ([3]; Cultivar ACH31, Hypocotyls) was 1%. The “# of lines produced shoots” value ([3]; Cultivar ACH31, Hypocotyls, regeneration medium MS + 1 mg/L BAP or TDZ) was 1, the “# of lines produced shoots” value ([3]; Cultivar ACH199, Cotyledons) was 1 and the “%B: number of lines producing callus and regenerating/total number of lines × 100” value ([3]; Cultivar ACH199, Cotyledons) was 0.5%. For the same compound, the “# of lines produced shoots” value ([3]; Cultivar ACH199, Hypocotyls) was 1, the “%B: number of lines producing callus and regenerating/total number of lines × 100” value ([3]; Cultivar ACH199, Hypocotyls) was 0.5% and the “# of lines produced shoots” value ([3]; Cultivar ACH203, Cotyledons) was 2. For the same compound, the “%B: number of lines producing callus and regenerating/total number of lines × 100” value ([3]; Cultivar ACH203, Cotyledons) was 0.9%, the “# of lines produced shoots” value ([3]; Cultivar ACH203, Hypocotyls) was 11 and the “%B: number of lines producing callus and regenerating/total number of lines × 100” value ([3]; Cultivar ACH203, Hypocotyls) was 5%. For the same compound, the “Effect of media” value [1, 7] was “Most tissues are red or dark yellow”, the “white embryos, share of tissues” value [1, 7] was 10% and the “Effect of media” value ([1]; IV. MSE, sucrose 6%, glycine 2 mg/L, phytohormone 0.01 mg/L) was “Necrotic tissue with some white embryos; growth is stunted”. The “Effect of media” value [1, 8] was “Light yellow tissues”, the “white embryos or white clumps, share of tissues” value [1, 8] was 25% and the “Effect of media” value [1, 6] was “Light yellow tissues”. For the same compound, the “white embryos or white clumps, share of tissues” value [1, 6] was 25%, the “Effect of media” value [1, 9] was “Vigorously growing, vitrified tissues” and the “white embryos, share of tissues” value [1, 9] was 10%. The “phenotype of embryos transferred to MS medium containing BAP or TDZ” value [4] was “formed multiple shoots but also retained white embryogenic tissues”, the “%A: number of lines producing callus/total number of lines × 100” value ([5]; Cultivar ACH31, Cotyledons) was 1% and the “# of lines produced callus” value ([5]; Cultivar ACH31, Cotyledons, MS + BAP 2 mg/L or TDZ 1 mg/L) was 3. The “%A: number of lines producing callus/total number of lines × 100” value ([5]; Cultivar ACH31, Hypocotyls, MS + BAP 2 mg/L or TDZ 1 mg/L) was 20%, the “# of lines produced callus” value ([5]; Cultivar ACH31, Hypocotyls, MS + BAP 2 mg/L or TDZ 1 mg/L, dark 21° C.) was 43 and the “%A: number of lines producing callus/total number of lines × 100” value ([5]; Cultivar ACH199, Cotyledons) was 2%. The “# of lines produced callus” value ([5]; Cultivar ACH199, Cotyledons, MS + BAP 2 mg/L) was 4, the “%A: number of lines producing callus/total number of lines × 100” value ([5]; Cultivar ACH199, Hypocotyls) was 15% and the “# of lines produced callus” value ([5]; Cultivar ACH199, Hypocotyls, MS + BAP 2 mg/L) was 36. The “%A: number of lines producing callus/total number of lines × 100” value ([5]; Cultivar ACH203, Cotyledons) was 5%, the “# of lines produced callus” value ([5]; Cultivar ACH203, Cotyledons, MS + BAP 2 mg/L or TDZ 1 mg/L) was 11 and the “%A: number of lines producing callus/total number of lines × 100” value ([5]; Cultivar ACH203, Hypocotyls) was 18%. The “# of lines produced callus” value ([5]; Cultivar ACH203, Hypocotyls, MS + BAP 2 mg/L or TDZ 1 mg/L) was 42.

`NC(=O)CC[C@H](N)C(=O)O` [Glutamine, glutamine] was tested, and the “colour of vitrified tissues” value [1] was “caused bleaching of vitrified tissues”, the “Effect of media” value [1, 10] was “Slowly growing, dark yellow tissues” and the “Effect of media” value [1, 11] was “Slowly growing, dark yellow tissues”.

`NCC(=O)O` [Glycine, glycine] was tested, and the “Effect of media” value [1, 10] was “Tissues are light yellow”, the “white embryos, share of tissues” value [1, 10] was 30% and the “Effect of media” value [1, 11] was “Slowly growing, mostly meristematic, vitrified tissues”.

`c1coc(CNc2ncnc3[nH]cnc23)c1` [Kin, kinetin] was tested, and the “Effect of media” value [1, 7] was “Slowly growing, mostly meristematic, vitrified tissues”.

`OC[C@@H](O)[C@@H](O)[C@H](O)[C@H](O)CO` [Mannitol, mannitol] was tested, and the “Effect of media” value [1, 12] was “No growth, total necrosis”.

In the case of `OC[C@@H](O)[C@@H](O)[C@H](O)[C@@H](O)CO` [Sorbitol, sorbitol], the “Effect of media” value [1, 12] is reported as “No growth, total necrosis”.

`OC[C@H]1O[C@@](CO)(O[C@H]2O[C@H](CO)[C@@H](O)[C@H](O)[C@H]2O)[C@@H](O)[C@@H]1O` [Sucrose, sucrose] was tested, and the “optimization of proliferation medium by modification of sucrose content” value [1] was “did not lead to any further improvement”, the “Effect of media” value [1, 12] was “A lot of repetitive white embryos” and the “Effect of media” value ([1]; V. MSE, BAP 0.1 mg/L, glycine 2 mg/L, sucrose at 3%) was “Necrosis of all tissues”. For the same compound, the “Effect of media” value ([1]; V. MSE, BAP 0.1 mg/L, glycine 2 mg/L, sucrose at 6%) was “A lot of repetitive white embryos”, the “Effect of media” value ([1]; V. MSE, BAP 0.1 mg/L, glycine 2 mg/L, sucrose at 8%) was “Growth is inhibited” and the “Effect of media” value ([1]; V. MSE, BAP 0.1 mg/L, glycine 2 mg/L, sucrose at 10%) was “Growth is inhibited”. The “Effect of media” value ([1]; V. MSE, BAP 0.1 mg/L, glycine 2 mg/L, sucrose at 12%) was “Growth is inhibited”.

With `C/C(=C\CNc1ncnc2[nH]cnc12)CO` [Zea, zeatin] the “Effect of media” value [1, 7] was “Slowly growing, mostly meristematic, vitrified tissues”.
